Measured values from patent publication US20250230193A1, “CYCLIC COMPOUND HAVING SELECTIVE KRAS INHIBITORY EFFECT ON HRAS AND NRAS” (CHUGAI SEIYAKU KABUSHIKI KAISHA, priority 2022, published 2025).
*1 amine or outer side, *2 acyl side, *3 side chain or, on linkers, in order; H or OH if unused. Where a SMILES comes first, the peptide text is derived from it. Bridges are numbered along the chain shown (N, C = ends). [ ]: non-standard residue; d: D form. The star is where a group is joined. hPhe(3-Cl-4-CF3) = N[C@@H](CCc1ccc(C(F)(F)F)c(Cl)c1)C(=O)O; NPrPhe(4-CF3) = CCCN[C@@H](Cc1ccc(C(F)(F)F)cc1)C(=O)O; NEtAsp = CCN([C@@H](CC(=O)[*:3])C(=O)[*:2])[*:1]; NMeGly(cPent) = CN[C@H](C(=O)O)C1CCCC1; NMeNva(3-Et) = CCC(CC)[C@H](NC)C(=O)O; NMeD = CN[C@@H](CC(=O)O)C(=O)O; NMeL = CN[C@@H](CC(C)C)C(=O)O; NMeNva = CCC[C@H](NC)C(=O)O; Morpholide = C1CN(*)CCO1; NMeA = CN[C@@H](C)C(=O)O; Aze = O=C(O)[C@@H]1CCN1; Ac4c = NC1(C(=O)O)CCC1; Sar = CNCC(=O)O

Experiments:
[1] = target: GDP-bound NRAS wild-type protein (Homo sapiens, UniProt P01111); test: Binding to NRAS by surface plasmon resonance (SPR), Single Cycle Kinetics; details: KD ratio, GDP-bound NRAS wild-type vs GDP-bound KRAS wild-type, SPR
[2] = target: GDP-bound HRAS wild-type protein (Homo sapiens, UniProt P01112); test: Binding to HRAS by surface plasmon resonance (SPR), Single Cycle Kinetics; details: KD ratio, GDP-bound HRAS wild-type vs GDP-bound KRAS wild-type, SPR
Sequence of GDP-bound HRAS wild-type protein (P01112 whole entry): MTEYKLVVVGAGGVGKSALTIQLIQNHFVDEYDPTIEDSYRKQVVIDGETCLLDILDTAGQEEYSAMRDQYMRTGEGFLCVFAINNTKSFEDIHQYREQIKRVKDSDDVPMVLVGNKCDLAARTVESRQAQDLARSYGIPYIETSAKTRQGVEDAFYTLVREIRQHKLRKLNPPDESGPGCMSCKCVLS

Sequence of GDP-bound NRAS wild-type protein (P01111 whole entry): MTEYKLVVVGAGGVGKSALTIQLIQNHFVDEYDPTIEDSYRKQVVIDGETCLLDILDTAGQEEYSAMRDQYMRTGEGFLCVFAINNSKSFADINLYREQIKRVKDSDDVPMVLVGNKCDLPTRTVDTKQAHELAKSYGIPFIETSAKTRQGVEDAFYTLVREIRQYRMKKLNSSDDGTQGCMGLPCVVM

SMILES | NRAS/KRAS (ratio of KD value for NRAS to KD value for KRAS) [1] | HRAS/KRAS (ratio of KD value for HRAS to KD value for KRAS) [2]
CCC[C@H]1C(=O)N[C@@H]([C@@H](C)CC)C(=O)N(C)[C@@H](C)C(=O)N2CC[C@H]2C(=O)N(CCC)[C@@H](Cc2ccc(C(F)(F)F)cc2)C(=O)N(C)CC(=O)N[C@@H](CCc2ccc(C(F)(F)F)c(Cl)c2)C(=O)N2CCC[C@H]2C(=O)NC2(CCC2)C(=O)N(C)[C@@H](C2CCCC2)C(=O)N(CC)[C@H](C(=O)N2CCOCC2)CC(=O)N1C [PP1955] ([NMeNva]I[NMeA][Aze][NPrPhe(4-CF3)][Sar][hPhe(3-Cl-4-CF3)]P[Ac4c][NMeGly(cPent)][NEtAsp]-Morpholide; lactam N-11) | C (A compound having a KD ratio of 0.1 or more and less than 3 is denoted as C) | B (a compound having 3 or more and less than 10 is denoted as B)
CCCN1C(=O)CN(C)C(=O)CN(C)C(=O)[C@H]([C@@H](C)CC)NC(=O)[C@H](CC(C)C)N(C)C(=O)C[C@@H](C(=O)N(C)C)N(CC)C(=O)[C@H](C2CCCC2)N(C)C(=O)C2(CCC2)NC(=O)[C@@H]2CCCN2C(=O)[C@H](CCc2ccc(C(F)(F)F)c(Cl)c2)NC(=O)CN(C)C(=O)[C@@H]1Cc1ccc(C(F)(F)F)cc1 [PP1956] ([NMeL]I[Sar][Sar][NPrPhe(4-CF3)][Sar][hPhe(3-Cl-4-CF3)]P[Ac4c][NMeGly(cPent)][NEtAsp]-NMe2; lactam N-11) | B (a compound having 3 or more and less than 10 is denoted as B) | B (a compound having 3 or more and less than 10 is denoted as B)
CCCN1C(=O)[C@@H]2CCN2C(=O)[C@H](C)N(C)C(=O)[C@H]([C@@H](C)CC)NC(=O)[C@H](CC(C)C)N(C)C(=O)C[C@@H](C(=O)N(C)C)N(CC)C(=O)[C@H](C2CCCC2)N(C)C(=O)C2(CCC2)NC(=O)[C@@H]2CCCN2C(=O)[C@H](CCc2ccc(C(F)(F)F)c(Cl)c2)NC(=O)CN(C)C(=O)[C@@H]1Cc1ccc(C(F)(F)F)cc1 [PP1957] ([NMeL]I[NMeA][Aze][NPrPhe(4-CF3)][Sar][hPhe(3-Cl-4-CF3)]P[Ac4c][NMeGly(cPent)][NEtAsp]-NMe2; lactam N-11) | C (A compound having a KD ratio of 0.1 or more and less than 3 is denoted as C) | B (a compound having 3 or more and less than 10 is denoted as B)
CCCN1C(=O)CN(C)C(=O)CN(C)C(=O)[C@H]([C@@H](C)CC)NC(=O)[C@H](CC(C)C)N(C)C(=O)C[C@@H](C(=O)N2CCOCC2)N(C)C(=O)[C@H](C(CC)CC)N(C)C(=O)C2(CCC2)NC(=O)[C@@H]2CCCN2C(=O)[C@H](CCc2ccc(C(F)(F)F)c(Cl)c2)NC(=O)CN(C)C(=O)[C@@H]1Cc1ccc(C(F)(F)F)cc1 [PP1958] ([NMeL]I[Sar][Sar][NPrPhe(4-CF3)][Sar][hPhe(3-Cl-4-CF3)]P[Ac4c][NMeNva(3-Et)][NMeD]-Morpholide; lactam N-11) | B (a compound having 3 or more and less than 10 is denoted as B) | B (a compound having 3 or more and less than 10 is denoted as B)
CCC[C@H]1C(=O)N[C@@H]([C@@H](C)CC)C(=O)N(C)[C@@H](C)C(=O)N2CC[C@H]2C(=O)N(CCC)[C@@H](Cc2ccc(C(F)(F)F)cc2)C(=O)N(C)CC(=O)N[C@@H](CCc2ccc(C(F)(F)F)c(Cl)c2)C(=O)N2CCC[C@H]2C(=O)NC2(CCC2)C(=O)N(C)[C@@H](C(CC)CC)C(=O)N(C)[C@H](C(=O)N2CCOCC2)CC(=O)N1C [PP1959] ([NMeNva]I[NMeA][Aze][NPrPhe(4-CF3)][Sar][hPhe(3-Cl-4-CF3)]P[Ac4c][NMeNva(3-Et)][NMeD]-Morpholide; lactam N-11) | C (A compound having a KD ratio of 0.1 or more and less than 3 is denoted as C) | B (a compound having 3 or more and less than 10 is denoted as B)
CCCN1C(=O)CN(C)C(=O)CN(C)C(=O)[C@H]([C@@H](C)CC)NC(=O)[C@H](CC(C)C)N(C)C(=O)C[C@@H](C(=O)N(C)C)N(C)C(=O)[C@H](C(CC)CC)N(C)C(=O)C2(CCC2)NC(=O)[C@@H]2CCCN2C(=O)[C@H](CCc2ccc(C(F)(F)F)c(Cl)c2)NC(=O)CN(C)C(=O)[C@@H]1Cc1ccc(C(F)(F)F)cc1 [PP1960] ([NMeL]I[Sar][Sar][NPrPhe(4-CF3)][Sar][hPhe(3-Cl-4-CF3)]P[Ac4c][NMeNva(3-Et)][NMeD]-NMe2; lactam N-11) | B (a compound having 3 or more and less than 10 is denoted as B) | C (A compound having a KD ratio of 0.1 or more and less than 3 is denoted as C)
CCCN1C(=O)[C@@H]2CCN2C(=O)[C@H](C)N(C)C(=O)[C@H]([C@@H](C)CC)NC(=O)[C@H](CC(C)C)N(C)C(=O)C[C@@H](C(=O)N(C)C)N(C)C(=O)[C@H](C(CC)CC)N(C)C(=O)C2(CCC2)NC(=O)[C@@H]2CCCN2C(=O)[C@H](CCc2ccc(C(F)(F)F)c(Cl)c2)NC(=O)CN(C)C(=O)[C@@H]1Cc1ccc(C(F)(F)F)cc1 [PP1961] ([NMeL]I[NMeA][Aze][NPrPhe(4-CF3)][Sar][hPhe(3-Cl-4-CF3)]P[Ac4c][NMeNva(3-Et)][NMeD]-NMe2; lactam N-11) | C (A compound having a KD ratio of 0.1 or more and less than 3 is denoted as C) | C (A compound having a KD ratio of 0.1 or more and less than 3 is denoted as C)
